Results from the CheMixHub drug solubility set.

Test: xn = mol fraction of the nth substance listed, in the solute-free solvent

Nc1cc(-c2ccncc2)c[nH]c1=O + CO + O
solubility (g/100 g solution)
Conditions	278.15 K	283.15 K	288.15 K	293.15 K	298.15 K	303.15 K	308.15 K	313.15 K	318.15 K	323.15 K
x2 = 0.05881	0.00167	0.00195	0.00231	0.00269	0.00313	0.00358	0.00409	0.00463	0.00525	0.00594
x2 = 0.1233	0.00324	0.00377	0.00445	0.00515	0.00595	0.00677	0.00768	0.00865	0.00977	0.011
x2 = 0.1942	0.00545	0.00626	0.00731	0.00841	0.00969	0.011	0.0124	0.0141	0.0159	0.0179
x2 = 0.2727	0.00818	0.00949	0.0111	0.0129	0.0147	0.0167	0.0189	0.0211	0.0237	0.0266
x2 = 0.3599	0.0113	0.013	0.0152	0.0174	0.0201	0.0228	0.0258	0.029	0.0326	0.0367
x2 = 0.4576	0.0147	0.0171	0.0201	0.0232	0.0266	0.0302	0.034	0.0381	0.0428	0.048
x2 = 0.5675	0.0183	0.0214	0.0246	0.029	0.0331	0.0375	0.0424	0.0475	0.0536	0.0605
x2 = 0.6923	0.0222	0.026	0.0305	0.0355	0.0408	0.0463	0.0524	0.0586	0.0662	0.0743
x2 = 0.835	0.0262	0.0305	0.0355	0.0412	0.0475	0.0545	0.0616	0.0694	0.0789	0.0893
